“And” between values parts separate entries of the source, which are not always exact repeats. Identical values can stand only once. Toxic doses and inconclusive results are not listed. The calls were made as follows: active = survival T/C of 150% or more; inactive = T/C below 125% in these data.
Test system: P388 leukemia ip, CD2F1 mice, survival T/C
Assay: NCI In Vivo Anticancer Drug Screen. Data for tumor model P388 Leukemia (intraperitoneal) in CD2F1 (CDF1) mice
Details: endpoint: median survival time, higher = longer survival
In short: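 Mice carrying the transplanted tumor received test compound or vehicle. Survival was recorded in each group, and the value is the treated-group measurement divided by that of the vehicle-treated control group.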

[1] = dose: 60.0 mg/kg/injection, schedule: Q01DX005 (ip), vehicle: Klucel (hydroxypropylcellulose) (HPC)
[2] = dose: 120.0 mg/kg/injection, schedule: Q01DX005 (ip), vehicle: Klucel (hydroxypropylcellulose) (HPC)
[3] = dose: 240.0 mg/kg/injection, schedule: Q01DX005 (ip), vehicle: Klucel (hydroxypropylcellulose) (HPC)
[4] = dose: 50.0 mg/kg/injection, schedule: Q01DX005 (ip), vehicle: saline with Tween-80
[5] = dose: 100.0 mg/kg/injection, schedule: Q01DX005 (ip), vehicle: saline with Tween-80
[6] = dose: 200.0 mg/kg/injection, schedule: Q01DX005 (ip), vehicle: saline with Tween-80
[7] = dose: 50.0 mg/kg/injection, schedule: Q01DX005 (ip), vehicle: Klucel (hydroxypropylcellulose) (HPC)
[8] = dose: 100.0 mg/kg/injection, schedule: Q01DX005 (ip), vehicle: Klucel (hydroxypropylcellulose) (HPC)
[9] = dose: 200.0 mg/kg/injection, schedule: Q01DX005 (ip), vehicle: Klucel (hydroxypropylcellulose) (HPC)
[10] = dose: 25.0 mg/kg/injection, schedule: Q01DX009 (ip), vehicle: saline
[11] = dose: 50.0 mg/kg/injection, schedule: Q01DX009 (ip), vehicle: saline with Tween-80
[12] = dose: 50.0 mg/kg/injection, schedule: Q01DX009 (ip), vehicle: saline
[13] = dose: 50.0 mg/kg/injection, schedule: Q01DX009 (ip), vehicle: Klucel (hydroxypropylcellulose) (HPC)
[14] = dose: 100.0 mg/kg/injection, schedule: Q01DX009 (ip), vehicle: Klucel (hydroxypropylcellulose) (HPC)
[15] = dose: 200.0 mg/kg/injection, schedule: Q01DX009 (ip), vehicle: Klucel (hydroxypropylcellulose) (HPC)

Measured: T/C

O=C1S/C(=C2\C(=O)N(CN3CCOCC3)c3ccccc32)C(=O)N1CN1CCOCC1
inactive: [1] 100 % of control | [2] 108 % of control | [3] 108 % of control

COc1ccc(C2C3=C(CC(C)(C)CC3=O)Oc3cc4c(cc32)OCO4)cc1 (configuration not stated)
inactive: dose: 60.0 mg/kg/injection, schedule: Q01DX005 (ip), vehicle: saline with Tween-80 93 % of control | dose: 120.0 mg/kg/injection, schedule: Q01DX005 (ip), vehicle: saline with Tween-80 96 % of control

C/C=C(\C)c1cc(=O)c2c(C)cc3c(c2o1)C(=O)c1c(OC)cccc1C3=O
inactive: dose: 100.0 mg/kg/injection, schedule: Q01DX001 (ip), vehicle: saline with Tween-80 96 % of control | dose: 200.0 mg/kg/injection, schedule: Q01DX001 (ip), vehicle: saline with Tween-80 93 % of control | dose: 400.0 mg/kg/injection, schedule: Q01DX001 (ip), vehicle: saline with Tween-80 89 % of control

O=C(O)c1ccnc2ccc3ccccc3c12
inactive: [4] 93 % of control | [5] 109 % of control | [6] 118 % of control

C/C1=C/CCC(C)c2cc(OC(=O)c3ccccc3)c(C)cc2C1 (configuration not stated)
inactive: dose: 25.0 mg/kg/injection, schedule: Q01DX005 (ip), vehicle: Klucel (hydroxypropylcellulose) (HPC) 104 % of control | [7] 99 % of control | dose: 70.0 mg/kg/injection, schedule: Q01DX005 (ip), vehicle: Klucel (hydroxypropylcellulose) (HPC) 90 % of control | [8] 107 % of control | dose: 140.0 mg/kg/injection, schedule: Q01DX005 (ip), vehicle: Klucel (hydroxypropylcellulose) (HPC) 95 % of control | [9] 95 % of control | dose: 280.0 mg/kg/injection, schedule: Q01DX005 (ip), vehicle: Klucel (hydroxypropylcellulose) (HPC) 90 % of control | dose: 560.0 mg/kg/injection, schedule: Q01DX005 (ip), vehicle: Klucel (hydroxypropylcellulose) (HPC) 90 % of control

COc1ccc(C2c3cc4c(cc3OC3(N5CCCC5)CCCC23)OCO4)c(OC)c1 (configuration not stated)
inactive: [1] 99 % of control | [2] 95 % of control | [3] 96 % of control

N#CNC(=S)SCC(N)=O
inactive: [7] 100 % of control | [8] 100 % of control | [9] 102 % of control

C=C/C(=C/CC(=O)O[C@@H]1CCC(C)(C)C(C=O)=C1C)Sc1ccccc1
inactive: dose: 50.0 mg/kg/injection, schedule: Q01DX001 (ip), vehicle: DMSO 92 % of control | dose: 100.0 mg/kg/injection, schedule: Q01DX001 (ip), vehicle: DMSO 92 % of control | dose: 200.0 mg/kg/injection, schedule: Q01DX001 (ip), vehicle: DMSO 92 % of control

c1cc[n+]2cc3cc4c(cc3cc2c1)OCO4
inactive: dose: 3.13 mg/kg/injection, schedule: Q01DX009 (ip), vehicle: distilled water + Tween-80 103 % of control and 107 % of control | dose: 6.25 mg/kg/injection, schedule: Q01DX009 (ip), vehicle: distilled water + Tween-80 119 % of control and 123 % of control | dose: 25.0 mg/kg/injection, schedule: Q01DX009 (ip), vehicle: distilled water + Tween-80 120 % of control and 94 % of control

Cc1cc2cc3cc(C)c(N)cc3nc2cc1N
inactive: dose: 12.5 mg/kg/injection, schedule: Q01DX009 (ip), vehicle: saline 113 % of control | [10] 110 % of control | [11] 97 % of control | [12] 114 % of control
120 % of control and 219 % of control: dose: 6.25 mg/kg/injection, schedule: Q01DX009 (ip), vehicle: saline with Tween-80

O=C1CCSC(=S)N1c1ccc(Cl)c([N+](=O)[O-])c1
inactive: dose: 25.0 mg/kg/injection, schedule: Q01DX009 (ip), vehicle: saline with Tween-80 87 % of control | [10] 97 % of control | [11] 88 % of control | [12] 104 % of control | dose: 50.0 mg/kg/injection, schedule: Q01DX009 (ip), vehicle: suspension in saline 103 % of control | dose: 100.0 mg/kg/injection, schedule: Q01DX009 (ip), vehicle: saline with Tween-80 98 % of control | dose: 100.0 mg/kg/injection, schedule: Q01DX009 (ip), vehicle: saline 97 % of control | dose: 100.0 mg/kg/injection, schedule: Q01DX009 (ip), vehicle: suspension in saline 109 % of control | dose: 200.0 mg/kg/injection, schedule: Q01DX009 (ip), vehicle: saline with Tween-80 115 % of control | dose: 200.0 mg/kg/injection, schedule: Q01DX009 (ip), vehicle: saline 97 % of control

O=C(O)CC(CC(=O)c1ccccc1)c1ccccc1 (configuration not stated)
inactive: dose: 12.5 mg/kg/injection, schedule: Q01DX009 (ip), vehicle: Klucel (hydroxypropylcellulose) (HPC) 104 % of control | dose: 25.0 mg/kg/injection, schedule: Q01DX009 (ip), vehicle: Klucel (hydroxypropylcellulose) (HPC) 101 % of control | [13] 103 % of control and 108 % of control | [14] 101 % of control and 102 % of control and 107 % of control | [15] 104 % of control and 94 % of control | dose: 400.0 mg/kg/injection, schedule: Q01DX009 (ip), vehicle: Klucel (hydroxypropylcellulose) (HPC) 104 % of control and 93 % of control

CC(C)CC(NC=O)C(=O)O (configuration not stated)
inactive: [7] 104 % of control and 109 % of control | [8] 95 % of control and 100 % of control | [9] 90 % of control

CC1(CCBr)C(=O)NC(=O)NC1=O
inactive: [4] 101 % of control | [5] 101 % of control | [6] 105 % of control

CC(C)(C)c1cc2c3c(c1)C(C(F)(F)F)(C(F)(F)F)OS3(O)OC2(C(F)(F)F)C(F)(F)F
inactive: dose: 12.5 mg/kg/injection, schedule: Q01DX005 (ip), vehicle: suspension in saline 103 % of control | dose: 25.0 mg/kg/injection, schedule: Q01DX005 (ip), vehicle: suspension in saline 108 % of control

CCn1c(Cl)c(/C=N/Nc2ccccc2[N+](=O)[O-])c2cccc(/C=N\Nc3ccccc3[N+](=O)[O-])c21
inactive: dose: 100.0 mg/kg/injection, schedule: Q01DX001 (ip), vehicle: Klucel (hydroxypropylcellulose) (HPC) 91 % of control | dose: 200.0 mg/kg/injection, schedule: Q01DX001 (ip), vehicle: Klucel (hydroxypropylcellulose) (HPC) 90 % of control | dose: 400.0 mg/kg/injection, schedule: Q01DX001 (ip), vehicle: Klucel (hydroxypropylcellulose) (HPC) 87 % of control

COc1cccc2c1C(=O)c1c(O)c3c(c(O)c1C2=O)C[C@@](O)(C(=O)O)C[C@@H]3OC1CC(N)C(O)C(C)O1 (some centres not stated)
inactive: dose: 3.13 mg/kg/injection, schedule: Q01DX009 (ip), vehicle: water 88 % of control | dose: 6.25 mg/kg/injection, schedule: Q01DX009 (ip), vehicle: water 123 % of control | dose: 18.75 mg/kg/injection, schedule: Q01DX001 (ip), vehicle: water 114 % of control | dose: 37.5 mg/kg/injection, schedule: Q01DX001 (ip), vehicle: water 121 % of control | dose: 75.0 mg/kg/injection, schedule: Q01DX001 (ip), vehicle: water 114 % of control | dose: 150.0 mg/kg/injection, schedule: Q01DX001 (ip), vehicle: water 122 % of control | dose: 300.0 mg/kg/injection, schedule: Q01DX001 (ip), vehicle: water 123 % of control
active: dose: 50.0 mg/kg/injection, schedule: Q01DX009 (ip), vehicle: water 155 % of control | dose: 100.0 mg/kg/injection, schedule: Q01DX009 (ip), vehicle: water 158 % of control

NC(N)=NN=c1/c(=N\N=C(N)N)c2cc3ccccc3cc2/c1=N/N=C(N)N
inactive: dose: 6.25 mg/kg/injection, schedule: Q01DX001 (ip), vehicle: saline 102 % of control | dose: 12.5 mg/kg/injection, schedule: Q01DX001 (ip), vehicle: saline 96 % of control | dose: 25.0 mg/kg/injection, schedule: Q01DX001 (ip), vehicle: saline 96 % of control and 97 % of control

Cc1ncc([N+](=O)[O-])n1CCOc1c(Cl)cc(Cl)cc1CN(C)C1CCCCC1
inactive: dose: 3.12 mg/kg/injection, schedule: Q01DX005 (ip), vehicle: Klucel (hydroxypropylcellulose) (HPC) 100 % of control | dose: 6.25 mg/kg/injection, schedule: Q01DX005 (ip), vehicle: Klucel (hydroxypropylcellulose) (HPC) 98 % of control | dose: 12.5 mg/kg/injection, schedule: Q01DX005 (ip), vehicle: Klucel (hydroxypropylcellulose) (HPC) 105 % of control

CCCCN1C(=O)C(CC(=O)OCC)SC1=S (configuration not stated)
inactive: [1] 95 % of control | [2] 97 % of control | [3] 97 % of control

CC(C)[N+](C)(C)CC(O)COc1cccc2ccccc12 (configuration not stated)
inactive: [12] 104 % of control

Nc1cc(=O)cc2nn[nH]n12
inactive: [13] 102 % of control | [14] 108 % of control | [15] 101 % of control

COC1(OC)C(C)C(C#N)(C#N)C1(OC)OC (configuration not stated)
inactive: [1] 100 % of control | [2] 106 % of control

— PubChem BioAssay AID330 (DTP/NCI, 2004)
